# Source: patent US9499493B2, “2,4-pyrimidinediamine compounds and their uses” (Rigel Pharmaceuticals, Inc., priority 2002, dated 2016)
# Test system: cultured human mast cells (CHMC)
# Experiment: CHMC low cell density IgE activation: tryptase assay
# Type: cell-based
# Conditions: anti-IgE
# Procedure: Pellet CHMC cells (980 rpm, 10 min) and resuspend in pre-warmed MT. Add 65 ul of cells to each 96-well plate. Depending on the degranulation activity for each particular CHMC donor, load 1000-1500 cells/well. Mix four times followed by a 1 hr incubation at 37° C. […] Stimulate cells by adding 25 ul of 6× anti-IgE solution to the appropriate plates. Add 25 ul MT to un-stimulated control wells. Mix twice following addition of the anti-IgE. Incubate at 37° C. for 30 minutes. […] Spin plates at 1000 rpm for 10 min to pellet cells. Transfer 25 ul of supernatant to a 96-well black bottom plate and add 100 ul of freshly diluted tryptase substrate solution to each well. Incubate plates at room temperature for 30 min.
row,Compound,IC50
1,"CCOC(=O)CCn1ncc2cc(Nc3ncc(F)c(Nc4ccc5c(c4)OCCO5)n3)ccc21 [R935301, N2-[1-(2-Ethoxycarbonylethyl)indazoline-5-yl]-N4-(3,4-ethylenedioxyphenyl)-5-fluoro-2,4-pyrimidinediamine]",4050 nM
2,"CCOC(=O)CCn1ncc2cc(Nc3nc(Nc4cccc(O)c4)ncc3F)ccc21 [R935303, N4-[1-(2-Ethoxycarbonylethyl)indazoline-5-yl]-5-fluoro-N2-(3-hydroxyphenyl)-2,4-pyrimidinediamine]",244 nM
3,"CCOC(=O)CCn1ncc2cc(Nc3nc(Nc4ccc(OC(C)C)cc4)ncc3F)ccc21 [R935306, N4-[1-(2-Ethoxycarbonylethyl)indazoline-5-yl]-5-fluoro-N2-(4-isopropoxyphenyl)-2,4-pyrimidinediamine]",345 nM
4,"CC(C)Oc1ccc(Nc2nc(Nc3ccc4c(cnn4CCCO)c3)ncc2F)cc1 [R935307, 5-Fluoro-N2-[1-(3-hydroxypropyl)indazoline-5-yl]-N4-(4-isopropoxyphenyl)-2,4-pyrimidinediamine]",139 nM
5,"COC(=O)c1ccc(Cn2ncc3ccc(Nc4ncc(F)c(Nc5ccc6c(c5)OCCO6)n4)cc32)c(OC)c1 [R935320, N4-(3,4-Ethylenedioxyphenyl)-5-fluoro-N2-[1-(2-methoxy-4-carbomethoxybenzyl)indazoline-6-yl]-2,4-pyrimidinediamine]",2770 nM
6,"COC(=O)c1ccc(Cn2ncc3ccc(Nc4ncc(F)c(Nc5cccc(O)c5)n4)cc32)c(OC)c1 [R935321, 5-Fluoro-N4-(3-hydroxyphenyl)-N2-[1-(2-methoxy-4-carbomethoxybenzyl)indazoline-6-yl]-2,4-pyrimidinediamine]",2990 nM
7,"COc1cc(C(=O)NS(=O)(=O)c2ccccc2C)ccc1Cn1ncc2ccc(Nc3ncc(F)c(Nc4ccc(OC(C)C)cc4)n3)cc21 [R935322, 5-Fluoro-N4-(4-isopropoxyphenyl)-N2-[1-[2-methoxy-4-(o-toluylsulfonamidocarboxy)benzyl]indazoline-6-yl]-2,4-pyrimidinediamine]",3420 nM
8,"COc1cc(C(=O)NS(=O)(=O)c2ccccc2C)ccc1Cn1ncc2ccc(Nc3ncc(F)c(Nc4ccc5c(c4)OCCO5)n3)cc21 [R935323, N4-(3,4-Ethylenedioxyphenyl)-5-fluoro-N4-[1-[2-methoxy-4-(o-toluylsulfonamidocarboxy)benzyl]indazoline-6-yl]-2,4-pyrimidinediamine]",> 10000 nM
9,"COc1cc(C(=O)NS(=O)(=O)c2ccccc2C)ccc1Cn1ncc2ccc(Nc3ncc(F)c(Nc4cccc(O)c4)n3)cc21 [R935324, 5-Fluoro-N4-(3-hydroxyphenyl)-N2-[1-[2-methoxy-4-(o-toluylsulfonamidocarboxy)benzyl]indazoline-6-yl]-2,4-pyrimidinediamine]",> 10000 nM
10,"COC(=O)c1ccc(Cn2cc3ccc(Nc4ncc(F)c(Nc5cccc(O)c5)n4)cc3n2)c(OC)c1 [R935337, 5-Fluoro-N4-(3-hydroxyphenyl)-N2-[2-(2-methoxy-4-carbomethoxybenzyl)indazoline-6-yl]-2,4-pyrimidinediamine]",> 10000 nM
11,"COc1cc(C(=O)NS(=O)(=O)c2ccccc2C)ccc1Cn1ncc2cc(Nc3ncc(F)c(Nc4ccc5c(c4)OCCO5)n3)ccc21 [R935339, N4-(3,4-Ethylenedioxyphenyl)-5-fluoro-N2-[1-[2-methoxy-4-(o-toluylsulfonamidocarboxy)benzyl]indazoline-5-yl]-2,4-pyrimidinediamine]",> 10000 nM
12,"COc1cc(C(=O)NS(=O)(=O)c2ccccc2C)ccc1Cn1ncc2cc(Nc3ncc(F)c(Nc4cccc(O)c4)n3)ccc21 [R935340, 5-Fluoro-N4-(3-hydroxyphenyl)-N2-[1-[2-methoxy-4-(o-toluylsulfonamidocarboxy)benzyl]indazoline-5-yl]-2,4-pyrimidinediamine]",3610 nM
13,"COc1ccc(Nc2nc(Nc3ccc4c(cnn4C)c3)ncc2F)c(OC)n1 [R935380, N4-(2,6-Dimethoxy-3-pyridyl)-5-fluoro-N2-[1-methylindazoline-5-yl]-2,4-pyrimidinediamine]",1610 nM
14,"CNC(=O)COc1cccc(Nc2ncc(F)c(Nc3ccc(OC)c(C(=O)NC(C)C)c3)n2)c1 [R940312, 5-Fluoro-N2-[3-(methylaminocarbonylmethyleneoxy)phenyl]-N4-(3-iso-propylaminocarbonyl-4-methoxyphenyl)-2,4-pyrimidinediamine]",2560 nM
15,"CNC(=O)COc1cccc(Nc2ncc(F)c(Nc3ccc(OC)c(CN4CCOCC4)c3)n2)c1 [R940314, 5-Fluoro-N2-[3-(methylaminocarbonylmethyleneoxy)phenyl]-N4-[3-(N-morpholinomethylene)-4-methoxyphenyl]-2,4-pyrimidinediamine]",4200 nM
16,"COc1ccc(Nc2nc(Nc3cc(C)c(O)c(Cl)c3)ncc2F)cc1CN1CCOCC1 [R940316, N2-(3-Chloro-4-hydroxy-5-methylphenyl)-5-fluoro-N4-[3-(N-morpholinomethylene)-4-methoxyphenyl]-2,4-pyrimidinediamine]",1860 nM

row,Compound,IC50
1,"COc1ccc(Nc2nc(Nc3cc(C)c(O)c(Cl)c3)ncc2F)cc1CN1CCNCC1 [R940318, N2-(3-Chloro-4-hydroxy-5-methylphenyl)-5-fluoro-N4-[3-(N-piperazinomethylene)-4-methoxyphenyl]-2,4-pyrimidinediamine]",3790 nM
2,"CNC(=O)COc1cccc(Nc2ncc(F)c(Nc3ccc(OC)c(CN(C(=O)OC(C)(C)C)C(C)C)c3)n2)c1 [R940319, N4-(3-(N-tert-Butoxycarbonyl-N-iso-propylaminomethylene)-4-methoxyphenyl)-5-fluoro-N2-[3-(methylaminocarbonylmethyleneoxy)phenyl]-2,4-pyrimidinediamine]",> 10000 nM
3,"CNC(=O)COc1cccc(Nc2ncc(F)c(Nc3ccc(OC)c(CN(C)C)c3)n2)c1 [R940321, N4-(3-N,N-Dimethylaminomethylene-4-methoxyphenyl)-5-fluoro-N2-[3-(methylaminocarbonylmethyleneoxy)phenyl]-2,4-pyrimidinediamine]",> 10000 nM
4,"CNC(=O)COc1cccc(Nc2ncc(F)c(Nc3ccc4c(c3)N(c3ccccn3)CC(C)(C)O4)n2)c1 [R940337, N4-[3-Dihydro-2,2-dimethyl-4-(2-pyridyl)-benzo[1,4]oxazin-6-yl]-5-fluoro-N2-[3-(methylaminocarbonylmethyleneoxy)phenyl]-2,4-pyrimidinediamine]",1100 nM
5,"CNC(=O)COc1cccc(Nc2ncc(F)c(Nc3cnc4c(c3)OC(C)(C)C(=O)N4)n2)c1 [R940345, N4-[(2,2-Dimethyl-4H-5-pyrido[1,4]oxazin-3-one)-7-yl]-5-fluoro-N2-[3-(methylaminocarbonylmethyleneoxy)phenyl]-2,4-pyrimidinediamine]",1710 nM
6,"CC1(C)Oc2ccc(Nc3nc(Nc4cccc(O)c4)ncc3F)cc2NC1=O [R940346, N4-[(2,2-Dimethyl-4H-benzo[1,4]oxazin-3-one)-6-yl]-5-fluoro-N2-(3-hydroxyphenyl)-2,4-pyrimidinediamine]",142 nM
7,"CC1(C)CN(c2ccccn2)c2cc(Nc3nc(Nc4cccc(O)c4)ncc3F)ccc2O1 [R940348, N4-[3-Dihydro-2,2-dimethyl-4-(2-pyridyl)-benzo[1,4]oxazin-6-yl]-5-fluoro-N2-(3-hydroxyphenyl)-2,4-pyrimidinediamine]",2190 nM
8,"COC(=O)c1cc2cc(Nc3ncc(F)c(Nc4ccc5c(c4)NC(=O)C(C)(C)O5)n3)ccc2o1 [R940354, N4-[(2,2-Dimethyl-4H-benzo[1,4]oxazin-3-one)-6-yl]-5-fluoro-N2-(2-methoxycarbonylbenzofur-5-yl)-2,4-pyrimidinediamine]",115 nM
9,"CNC(=O)COc1cccc(Nc2ncc(F)c(Nc3cnc4c(c3)OCCN4)n2)c1 [R945263, 5-Fluoro-N2-(3-methylaminocarbonylmethyleneoxyphenyl)-N4-[2H-pyrido[3,2-b]-1,4-oxazin-7-yl]-2,4-pyrimidinediamine]",1640 nM
10,"O=[N+]([O-])c1ccc(NCCO)c(Nc2ccnc(Nc3cc([N+](=O)[O-])ccc3NCCO)n2)c1 [R950156, N2,N4-Bis(2-hydroxyethyleneamino-5-nitrophenyl)-2,4-pyrimidinediamine]",> 10000 nM
11,"CC(=O)Nc1cccc(N(C(C)=O)c2ncc(F)c(N(C(C)=O)c3cccc(NC(C)=O)c3)n2)c1 [R950244, N2,N4-Bis(3-N-acetylaminophenyl)-5-fluoro-N2,N4-pyrimidinediacetylamine]",> 10000 nM
12,"CC(=O)Nc1cccc(N(C(C)=O)c2ncc(F)c(N(C(C)=O)c3cccc(N(C(C)=O)C(C)=O)c3)n2)c1 [R950245, N4-(3-N,N-Diacetylaminophenyl)-N2-(3-N-acetylaminopheny)-5-fluoro-N2,N4-pyrimidinediacetylamine]",> 10000 nM
13,"CC(=O)Nc1cccc(N(C(C)=O)c2nc(N(C(C)=O)c3cccc(N(C(C)=O)C(C)=O)c3)ncc2F)c1 [R950246, N4-(3-N-Acetylaminophenyl)-N2-(3-N,N-diacetylaminopheny)-5-fluoro-N2,N4-pyrimidinediacetylamine]",> 10000 nM
14,"CC(=O)N(C(C)=O)c1cccc(N(C(C)=O)c2ncc(F)c(N(C(C)=O)c3cccc(N(C(C)=O)C(C)=O)c3)n2)c1 [R950247, N2,N4-Bis(3-N,N-diacetylaminophenyl)-5-fluoro-N2,N4-pyrimidinediacetylamine]",> 10000 nM
15,"CNC(=O)COc1cccc(Nc2ncc(F)c(Nc3ccc4c(c3)C(=O)CCO4)n2)c1 [R950345, N4-(2,3-Dihydro-4-benzypyranon-6-yl)-5-fluoro-N2-[3-(N-methylamino)carbonylmethyleneoxyphenyl]-2,4-pyrimidinediamine]",1960 nM
16,"CNC(=O)COc1cccc(Nc2ncc(F)c(Nc3ccc4c(c3)C(=NO)CCO4)n2)c1 [R950348, N4-(2,3-Dihydro-4-oxime-benzypyran-6-yl)-5-fluoro-N2-[3-(N-methylamino)carbonylmethyleneoxyphenyl]-2,4-pyrimidinediamine]",66 nM
